From patent publication US7183061B2, “Method of expressing Heliothis ecdysone receptor fusion protein” (Syngenta Limited, priority 1996, dated 2007)

Molecular target: chimeric glucocorticoid VP16/Heliothis ecdysone receptor (UniProt O18473+P04150, DEL153-392/E478D/INS403[…]/INS405[…]/M398P/P396A/P400T/P406S/R399P/S397A/Y393A)
Assay: Maize protoplast GUS reporter assay with pMF6GRVP16HEcR and p221.9GRE6
Assay type: cell-based, Heliothis virescens
Parameters: expressed in transfected cells; host or cells: maize protoplasts (A10); stably transformed tobacco plants, pES3/pES4 (A11)
Protocol: Protoplasts were isolated from a maize suspension culture derived from BE70×A188 embryogenic callus material, which was maintained by subculturing twice weekly in MS0.5mod. (MS medium supplemented with 3% sucrose, 690 mg/l proline, 1 g/l myo-inositol, 0.2 g/l casein acid hydrolysate, 0.5 mg/l 2,4-D, pH 5.6). Cells from suspensions two days post subculture were digested in enzyme mixture (2.0% Cellulase RS, 0.2% Pectolyase Y23, 0.5 M Mannitol, 5 mM CaCl2.2H2O, 0.5% MES, pH 5.6, ˜660 mmol/kg) using ˜10 ml/g cells, incubating at 25° C., dim light, rotating gently for ˜2 hours. The digestion mixture was sieved sequentially through 250 μm and 38 μm sieves, and the filtrate centrifuged at 700 rpm for 3.5 minutes, discarding the supernatant. The protoplasts were resuspended in wash buffer (0.358 M KCl, 1.0 mM NH4NO3, 5.0 mM CaCl2.2H2O, 0.5 mM KH2PO4, pH 4.8, ˜670 mmol/kg) and pelleted as before. This washing step was repeated. The pellet was resuspended in wash buffer and the protoplasts were counted. Transformation was achieved using a Polyethylene glycol method based on Negrutiu et al. Protoplasts were resuspended at 2×10^6/ml in MaMg medium (0.4 M Mannitol, 15 mM MgCl2, 0.1% MES, pH 5.6, ˜450 mmol/kg) aliquotting 0.5 ml/treatment (i.e. 1×10^6 protoplasts/treatment). […] Protein concentrations of tissue homogenates were determined by the Bio-Rad protein assay (Bradford, 1976). […]

Sequence of chimeric glucocorticoid VP16/Heliothis ecdysone receptor (P04150+O18473 fused with the stated changes): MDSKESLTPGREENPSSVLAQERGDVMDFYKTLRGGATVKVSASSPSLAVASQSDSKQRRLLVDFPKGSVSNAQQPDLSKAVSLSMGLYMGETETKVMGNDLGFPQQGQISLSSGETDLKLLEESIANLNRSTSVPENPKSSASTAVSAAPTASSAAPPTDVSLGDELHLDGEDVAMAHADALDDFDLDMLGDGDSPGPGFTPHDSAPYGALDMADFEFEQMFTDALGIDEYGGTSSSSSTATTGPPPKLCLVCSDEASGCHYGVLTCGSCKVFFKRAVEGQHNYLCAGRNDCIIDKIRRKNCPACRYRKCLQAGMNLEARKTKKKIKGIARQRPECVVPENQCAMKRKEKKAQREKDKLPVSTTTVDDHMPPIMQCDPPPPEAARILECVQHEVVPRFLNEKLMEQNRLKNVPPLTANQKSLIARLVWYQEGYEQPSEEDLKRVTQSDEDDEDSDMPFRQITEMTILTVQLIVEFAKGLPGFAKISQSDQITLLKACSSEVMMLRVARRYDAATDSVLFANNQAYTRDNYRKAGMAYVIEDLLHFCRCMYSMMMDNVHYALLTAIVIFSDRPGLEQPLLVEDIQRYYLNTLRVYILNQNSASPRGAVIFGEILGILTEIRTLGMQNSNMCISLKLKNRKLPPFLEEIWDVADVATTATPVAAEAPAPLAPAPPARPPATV

CCc1ccc(C(=O)NN(C(=O)c2cc(C)cc(C)c2)C(C)(C)C)cc1 [RH5992, 3,5-dimethylbenzoic acid 1-1(1,1-dimethylethyl)-2(4-ethylbenzoyl)hydrazide]
GUS levels relative to positive control (p35SCaMVGUS) (maize protoplasts (FIG. 39)): comparable to those observed with the positive control
levels of expression relative to pMF6GRHEcR (maize protoplasts, 100 μM): enhanced levels of expression
